Here are results for 17 compounds from patent US8202863B2 (Aventis Pharmaceuticals Inc., priority 2005, dated 2012).

Chain of human h-PGDS (O60760 whole entry): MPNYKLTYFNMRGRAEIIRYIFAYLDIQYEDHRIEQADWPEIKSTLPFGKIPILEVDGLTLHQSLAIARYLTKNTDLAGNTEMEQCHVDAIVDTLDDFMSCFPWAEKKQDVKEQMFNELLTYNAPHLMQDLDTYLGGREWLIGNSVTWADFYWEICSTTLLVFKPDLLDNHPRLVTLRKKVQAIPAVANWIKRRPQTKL

The target in the first test is human h-PGDS (Homo sapiens, UniProt O60760). In words: Enzyme Immunoassay (EIA) method (Assay 2). As to conditions: assigned. In kind it is biochemical. The source says:
(§1) The compounds of the present invention can be tested for enzymatic inhibiting activity against PGD2 Synthase according to either one of the following assays.
(§2) Assay 2: Enzyme Immunoassay (EIA) Method
• a. Preparation of 0.1M K2HPO4/KH2PO4 buffer (pH ˜7.4) • Prepare 0.1 M KH2PO4 from 1M KH2PO4 (Sigma, Cat# P-8709) • Prepare 0.1 M K2HPO4 from powder of K2HPO4 (Fisher, BP363-500) • Mix 0.1 M K2HPO4 with 0.1 M KH2PO4 to adjust pH to 7.4. • b. Preparation of 0.5% γ-globulin • Add 0.1 g of γ-globulin (Sigma, Cat# G-5009) to 20 mL 0.1 M K2HPO4/KH2PO4 buffer (pH ˜7.4) and make 1-ml/vial aliquots and store in −80° C. • c. Preparation of 100 mM GSH • Add 307 mg of GSH (Sigma, Cat# G-6529) to 10 mL 0.1 M K2HPO4/KH2PO4 buffer (pH ˜7.4) and store at −80° C. • d. Preparation of Reaction buffer: • 198 mL of 0.1M K2HPO4/KH2PO4 buffer (pH ˜7.4) • 2 mM GSH—Prepared from 100 mM GSH • 0.4 g Glycerol • 2 mL of 0.5% γ-globulin • Add 0.4 g of glycerol and 2 mL of 0.5% γ-globulin to 198 mL of 0.1 M K2HPO4/KH2PO4 • buffer (pH7.4). • Add 0.4 mL of 100 mM GSH to 19.6 ml reaction buffer before the assay (enough for two 96-well plates). • e. Preparation of FeCl2/citric acid stopping solution: (8 mg/mL FeCl2, 0.1 M citric acid) • Add 40 mg fresh FeCl2 (IGN, Cat# 158046) to 5 ml 0.1 M citric acid (Sigma, Cat# C0759). • f. Preparation of MOX reagent: • 10% EtOH-Add 1 mL of EtOH to 9 mL of ultra pure H2O • Dissolve 0.1 g of methoxylamine (Cayman, Cat# 400036/) in 10% EtOH (10 mL). • Add 0.82 g of sodium acetate (Cayman, Cat#400037) to MOX solution and dissolve. II. Materials and Method • Dimethylsulfoxide (DMSO; Sigma; Cat# D2650) • Prostaglandin D2-MOX express EIA kit (Caymen Chemical, Catalog No. 500151)
Before the assay, cool down 10 mL of acetone in polypropylene tubes and empty 96 well plates in ice. All the procedures except compound dilution are performed on ice.
• 1. Dilute Compound in DMSO
• 2. Dilute 2 μL of each above concentration of compound to 38 μL of reaction buffer in 96-well plates and mix. IV. Enzyme and Substrate Solution Preparation • 1. Preparation of 0.39 ng/μL enzyme solution (0.35 ng/μL at final after compound addition). • Mix 4 μL of 4 mg/mL human h-PGDS with 396 μL of reaction buffer (to give enzyme concentration 40 μg/mL). Add 46.8 μL of 40 μg/mL h-PGDS to 4.753 mL of reaction buffer to give a total volume of 4.8 mL • 2. Preparation of Substrate Solution (PGH2): Add 0.375 mL of 0.1 mg/mL of PGH2 to 1.625 mL acetone. V. Enzyme Reaction: • 1. Add 60 μL of enzyme solution to compound well and positive control (without compound) in U-bottom polypropylene plate on ice. • 2. Add 60 μL of reaction buffer and 6.6 μL of 5% DMSO in reaction buffer into negative control wells in the plate. • 3. Add 6.6 μL of diluted compound in reaction buffer to the compound wells and mix. • 4. Add 6.6 μL of 5% DMSO in reaction buffer to the positive control well. • 5. Incubate the plate in ice for at least 30 min. • 6. Add 20 μL of substrate (PGH2) solution to compound, negative and positive control wells in the U-bottom 96 well plate on ice. • 7. Dry the plate in cold room for about 25-28 min. • 8. Pipette 45 μL of enzyme solution (above) into 96-wells with dried PGH2 and mix 3 times. Incubate on the ice for 1 min. • 9. Add 45 μL of FeCl2 solution into each wells and mix. • 10. Add 90 μL of MOX solution and mix. • 11. Incubate for 30 min at 60° C. • 12. Dilute the samples 2500× with EIA buffer. VI. EIA assay • Perform the assay according to the procedure in EIA kit provided by Cayman. […]
With `O=C(Nc1nc(-c2ccccc2)ns1)c1cnc(-c2ccccc2)nc1` [Example 110, 2-Phenyl-pyrimidine-5-carboxylic acid (3-phenyl-[1,2,4]thiadiazol-5-yl)-amide], half-maximal inhibition (IC50) required 30 nM.
Still for that read-out and setting: as for `COCCCNS(=O)(=O)c1cccc(CNC(=O)c2cnc(-c3cccc(F)c3)nc2)c1` [Example 51, 2-(3-Fluoro-phenyl)-pyrimidine-5-carboxylic acid 3-(3-methoxy-propylsulfamoyl)-benzylamide], the figure is 37 nM; as for `CC(C)(CO)NS(=O)(=O)c1cccc(CNC(=O)c2cnc(-c3cccc(F)c3)nc2)c1` [Example 54, 2-(3-Fluoro-phenyl)-pyrimidine-5-carboxylic acid 3-(2-hydroxy-1,1-dimethyl-ethylsulfamoyl)-benzylamide], 60 nM; as for `CN1CCC(NC(=O)c2cnc(-c3ccccc3)nc2)CC1` [Example 38, 2-Phenyl-pyrimidine-5-carboxylic acid (1-methyl-piperidin-4-yl)-amide], 96 nM.
Still for that read-out and setting: as for `Cc1nc(-c2ncc(C(=O)NC3CCOCC3)cn2)cs1` [Example 118, 2-(2-Methyl-thiazol-4-yl)-pyrimidine-5-carboxylic acid (tetrahydro-pyran-4-yl)-amide], the figure is 82 nM; as for `O=C(NCc1ccccc1)c1cnc(-c2ccccc2)nc1` [Example 1, 2-Phenyl-pyrimidine-5-carboxylic acid benzylamide], 10 nM.

The next test deals with T1, Hematopoietic PGD2 Synthase (Homo sapiens, UniProt O60760). Put plainly: Fluorescence Polarization Assay (Assay 1). It is filed as binding. Particulars: assigned.
T1 sequence (O60760 whole entry): as above
From the text: as §1
(§3) Assay 1: Fluorescence Polarization Assay
(§4) As described in PCT publication WO 2004/016223, Example II.
For orientation: Polarisation of emitted light reports the rotation of a fluorescent probe.
Consider `O=C(NC1CCN(Cc2ncc[nH]2)CC1)c1cnc(-c2ccccc2)nc1` [Example 9], for which the IC50 (commonly the concentration that inhibits the measured activity by half) stood at 2 nM.

A further test addresses T1, Hematopoietic PGD2 Synthase. Put plainly: Fluorescence Polarization Assay or EIA assay (which one not stated). It is filed as biochemical. Particulars: assay not assigned in b678 (Fluorescence Polarization or EIA). As to the method:
as §1, §3, §4, §2
• 2. Dilute 2 μL of each above concentration of compound to 38 μL of reaction buffer in 96-well plates and mix. IV. Enzyme and Substrate Solution Preparation • 1. Preparation of 0.39 ng/μL enzyme solution (0.35 ng/μL at final after compound addition). • Mix 4 μL of 4 mg/mL human h-PGDS with 396 μL of reaction buffer (to give enzyme concentration 40 μg/mL). Add 46.8 μL of 40 μg/mL h-PGDS to 4.753 mL of reaction buffer to give a total volume of 4.8 mL • 2. Preparation of Substrate Solution (PGH2): Add 0.375 mL of 0.1 mg/mL of PGH2 to 1.625 mL acetone. V. Enzyme Reaction: • 1. Add 60 μL of enzyme solution to compound well and positive control (without compound) in U-bottom polypropylene plate on ice. • 2. Add 60 μL of reaction buffer and 6.6 μL of 5% DMSO in reaction buffer into negative control wells in the plate. • 3. Add 6.6 μL of diluted compound in reaction buffer to the compound wells and mix. • 4. Add 6.6 μL of 5% DMSO in reaction buffer to the positive control well. • 5. Incubate the plate in ice for at least 30 min. • 6. Add 20 μL of substrate (PGH2) solution to compound, negative and positive control wells in the U-bottom 96 well plate on ice. • 7. Dry the plate in cold room for about 25-28 min. • 8. Pipette 45 μL of enzyme solution (above) into 96-wells with dried PGH2 and mix 3 times. Incubate on the ice for 1 min. • 9. Add 45 μL of FeCl2 solution into each wells and mix. • 10. Add 90 μL of MOX solution and mix. • 11. Incubate for 30 min at 60° C. • 12. Dilute the samples 2500× with EIA buffer. VI. EIA assay • Perform the assay according to the procedure in EIA kit provided by Cayman. Total PGD2 levels (pg/mL) were determined in the samples by EIA kits (Caymen Chemical, Catalog No. 500151) Calculate amount of PGD2 as below • Calculated % Positive control according to the equation below; % Positive control=(Compound value−Negative control)/(Positive value-Negative control value)×100. % Positive control=(Compound value-Negative control)×100(Positive Value-Negative Control Value) • Compound value=PGD2 levels (pg/mL) obtained from the standard curve in EIA assay for the samples with compound • Negative control value=PGD2 levels (pg/mL) obtained from the standard curve in EIA assay for the samples without enzyme • Positive control value=PGD2 levels (pg/mL) obtained from the standard curve in EIA assay for the samples with enzyme but without compound • IC50s are determined by excel fit to get the x value when y=½Ymax using 4 parameter logistic model for the IC50 curves. Results
Regarding `CCOP(=O)(OCC)C(NC(=O)c1cnc(-c2ccccc2)nc1)c1ccccc1` (centres unmarked) [Example 101, {Phenyl-[(2-phenyl-pyrimidine-5-carbonyl)-amino]-methyl)-phosphonic acid diethyl ester], the IC50 was 48 nM.
Still for that read-out and setting: the result for `O=C(Nc1ccc2nc(CCN3CCCC3)oc2c1)c1cnc(-c2ccccc2)nc1` [Example 11, 2-Phenyl-pyrimidine-5-carboxylic acid [2-(2-pyrrolidin-1-yl-ethyl)-benzooxazol-6-yl]-amide] reads 18 nM.
Same read-out and setting: the result for `NC(=O)c1ccc(CNC(=O)c2cnc(-c3ccccc3)nc2)cc1` [Example 92, 2-Pheny-pyrimidine-5-carboxylic acid 4-carbamoyl-benzylamide] reads 16 nM; that for `O=C(NCc1ccc(N2CCOCC2)cc1)c1cnc(-c2ccccc2)nc1` [Example 87, 2-Pheny-pyrimidine-5-carboxylic acid 4-morpholin-4-ylbenzylamide], 12 nM; that for `CCOP(=O)(Cc1ccc(NC(=O)c2cnc(-c3ccccc3)nc2)cc1)OCC` [Example 98], 38 nM.
Still for that read-out and setting: the result for `O=C(NCc1ccc2occc2c1)c1cnc(-c2ccccc2)nc1` [Example 90, 2-Pheny-pyrimidine-5-carboxylic acid (benzofuran-5-ylmethyl)-amide] reads 7 nM; that for `Cc1nc(-c2ncc(C(=O)NC3CCOCC3)cn2)no1` [Example 77, 2-(5-Methyl-[1,2,4]oxadiazole-3-yl)-pyrimidine-5-carboxylic acid (tetrahydro-pyran-4-yl)-amide], 514 nM; that for `O=C(NCc1cccc(S(=O)(=O)NCCc2c[nH]cn2)c1)c1cnc(-c2cccc(F)c2)nc1` [Example 60, 2-(3-Fluoro-phenyl)-pyrimidine-5-carboxylic acid 3-[2-(1H-imidazol-4-yl)-ethylsulfamoyl]-benzylamide], 61 nM.
On to `O=C(Nc1cc[nH]c(=O)n1)c1cnc(-c2ccccc2)nc1` [Example 29, 2-Phenyl-pyrimidine-5-carboxylic acid (2-oxo-1,2-dihydro-pyrimidin-4-yl)-amide], for which the IC50 came out at 15 nM.
Same read-out and setting: as for `CCOP(=O)(CCCCNC(=O)c1cnc(-c2ccccc2)nc1)OCC` [Example 99, {4-[(2-Phenyl-pyrimidine-5-carbonyl)-amino]-butyl)-phosphonic acid diethyl ester], the figure is 23.5 nM.
